From patent US20110207694A1, “MAMMALIAN HYPOTHALAMIC NUTRIENT MODULATION OF GLUCOSE METABOLISM” (priority 2005, published 2011)
Entries after “also recorded” stand apart in the source; their conditions may differ.

Key:
hepatic VLDL secretion = experiment: Lipoprotein (VLDL) secretion studies with tyloxapol; NMR particle size; assay type: in vivo, rat; settings: increased central metabolism of lactate to pyruvate, rats (Example 3)
Procedure: Lipoproteins secretion and particles concentration and size measurements. Tyloxapol (600 mg/kg; ˜1 min) was intravenously injected to inhibit endogenous lipoprotein lipase. This high dose of tyloxapol ensured complete inhibition of triglyceride clearance during VLDL secretion studies. Plasma samples were taken every 30 min for triglycerides analysis and for lipoprotein profiling. Plasma VLDL particles concentration and size were determined by nuclear magnetic resonance spectroscopy (lipoprofile-II test) at Liposcience as previously described (Otvos et al., 1991; 1992). This NMR lipoprofile-II test is based on the assumption that each plasma lipoprotein particle of a particular size gives its own characteristic lipid NMR signal. The intensity of the signal is also in proportion to the concentration of the particle. The diameter range for large, medium and small VLDL is >60 nm, 35-60 nm, and 27-35 nm, respectively.
Selective hepatic branch vagotomy. The surgeries were performed as described (Lam et al., 2005c).
Treatment with SCD1 ASO. Five and two days before the lipoprotein secretion studies, rats received a single intra-peritoneal injection of either SCD1 or scrambled (SCR) ASO (100 mg/kg of body weight). […] In a separate set of studies, rats received intra-portal injection of either SCD1 or SCR ASO (40 mg/kg of body weight) (Gutierrez-Juarez et al., 2006) three days before the lipoprotein secretion studies.
Portal oleate infusion. Chronic portal catheter was implanted and 7 days were allowed for rat recovery. Oleic acid (45 mM; dissolved in 45% HBP) was infused at a rate of 40 μl/h for 2.5 h (1 h before the 90 min lipoprotein secretion studies). This dose enabled the reconstitution of hepatic oleyl-CoA levels back to normal during portal SCD1 ASO (FIG. 11c) or ICV glucose studies (FIG. 11d).

high fat-fed rats [1] = experiment: ICV glucose or lactate in high fat-fed rats: plasma triglycerides and VLDL secretion; assay type: in vivo, rat
Procedure: High fat feeding. Male Sprague-Dawley rats were fed a highly palatable high fat diet for three days. These rats developed hyperinsulinemia and hepatic insulin resistance (Morgan et al., 2004). […] In a separate set of studies, lipoprotein secretion studies were performed at the beginning of the ICV infusions.

rats = experiment: Food intake after central (ICV) glucose or lactate; assay type: in vivo, rat
conscious rats [2] = experiment: Circulating lactate infusion with central LDH inhibitor or KATP blocker: glucose kinetics during pancreatic clamps; settings: pancreatic clamps
conscious rats [3] = experiment: ICV glucose or lactate infusion with pancreatic basal insulin clamp: plasma glucose and liver glucose production; assay type: in vivo, rat
Source text: We hypothesize that the hypothalamic sensing of glucose-derived pyruvate is a novel regulator of endogenous glucose production (GP). […] We propose that an increase in neuronal pyruvate levels is a hypothalamic signal of nutrient availability.
Long chain fatty acids in the brain decrease glucose production (GP) by the liver via activation of hypothalamus ATP-sensitive (KATP) channels. Here we tested whether (A) direct administration of glucose in the third cerebral ventricle can alter glucose production by the liver, and (B) whether this effect requires its metabolism in the TCA cycle.

high fat-fed rats [4] = experiment: Central glucose or lactate in regular chow vs 3-day high fat diet-fed animals: glucose production; assay type: in vivo, rat; settings: central administration
Source text: The latter is an excellent model for diet-induced insulin resistance.

male Sprague-Dawley rats = experiment: ICV infusion: plasma triglycerides and metabolites under basal and pancreatic clamp conditions; assay type: in vivo, rat
Source text: Animal preparation. We studied 10-week-old male Sprague-Dawley rats. Rats underwent stereotaxic surgery to indwell single catheters in the third cerebral ventricle {intracerebroventricular (ICV)(Obici et al., 2001) or bilateral catheters into the mediobasal hypothalamus (Lam et al., 2005c). One week later, we placed indwelling catheters in the internal jugular vein and carotid artery for sampling and infusion during the in vivo experiments (Obici et al., 2001). Recovery from surgery was monitored by measuring daily food intake and weight gain for 4-5 days after surgery.
(§1) Infusion protocols. The in vivo infusion experiments lasted a total of 360 min, and the experiments were carried out in rats that had their food removed ˜5 h before the experiments. Thus, at the time of the experiment, the rats are in post-absorptive state since their stomach should be completely emptied by 5 h fasting. […] This ICV glucose protocol physiologically elevate hypothalamic glucose concentration by ˜70% as previously described (Lam et al., 2005b) and is similar to that induced by a doubling of the circulating glucose levels (Lam et al., 2005b). During the ICV infusions, we monitored the plasma metabolite levels under pre-infused (0 min), basal (180-240 min) and pancreatic clamp (300-360 min) conditions. […] A basal insulin-pancreatic clamp was performed in the final 2 h (240-360 min) of the study as previously described (Lam et al., 2005b). In brief, a continuous infusion of insulin (1 mU/kg.min) and somatostatin (3 μg/kg.min) was administered, and a variable infusion of a 25% glucose solution was started and periodically adjusted to clamp and maintain the plasma glucose concentration at ˜8 mM. […] To examine the time-dependent effects of ICY glucose on plasma triglycerides, ICY (5 μl/h) 2 mM D-glucose or mannitol was administrated for 210 min and plasma triglyceride levels were monitored at 0, 20, 60, 120, 180, 210 min. […] Plasma triglycerides were monitored under basal, pancreatic clamp and tyloxapol-treated conditions. At the end of the infusion experiments, rats were anesthetized and tissue samples were freeze-clamped in situ with aluminum tongs pre-cooled in liquid nitrogen. All tissue samples were stored at −80° C. for subsequent analysis.
Biochemical analyses. Plasma glucose concentrations were measured by the glucose oxidase method (Glucose Analyzer II, Beckman Instruments, Inc., Fullerton, Calif.). […] FFA concentrations were determined by an enzyme assay in accordance with the manufacturer's specifications (Waco Pure Chemical Industries. Osaka. Japan). Plasma insulin concentrations (with rat and porcine insulin standards) were measured by radioimmunoassay (RIA). Plasma adiponectin concentrations were measured by RIA (Linco Inc., Austin, Tex., USA). Liver triglycerides were measured as described (Muse et al., 2004).
Calculations. Statistical analysis was done by unpaired Student's t test or analysis of variance as appropriate. Data are presented as means±SEM. All values were collapsed into a single value for each animal prior to the calculation of mean. The time period 180-240 min was averaged for the basal and the time period 300-360 min was averaged for the clamp conditions.

conscious rats [5] = experiment: Intravenous lactate infusion with or without MBH oxamate: plasma TG and hepatic TG-VLDL production; assay type: in vivo, rat
Procedure: as §1
VLDL are decreased in the hours following an acute bout of exercise. […] To investigate the mechanism by which lactate lowers plasma TG levels, the rate of production of hepatic TG-enriched VLDL was measured.

## C[C@H](O)C(=O)O [lactate, L-lactate]
Hepatic VLDL secretion
  suppression of hepatic TG-enriched VLDL production: ~40%
High fat-fed rats [1]; HF rats, tyloxapol
  rate of appearance of VLDL-triglycerides in plasma: decreased the rate of appearance of VLDL-triglycerides in plasma to levels similar to those of SC rats
High fat-fed rats [1]; high fat-fed rats
  circulating levels of triglycerides: effectively lowered the circulating levels of triglycerides to levels similar to those of rats on a standard chow
rats; central administration
  food intake overnight: inhibits food intake overnight
rats; the day following ICV injection
  decrease in food intake: ~40%
Conscious rats [2]; intravenous infusion of lactate alone
  glucose infusion kinetics: did not affect glucose infusion kinetics
Conscious rats [2]; intravenous infusion of lactate
  elevation of plasma lactate: ~3 fold
Conscious rats [3]; central (ICV) administration
  circulating glucose levels: sufficient to markedly diminish circulating glucose levels; also recorded: lowered circulating glucose levels
Conscious rats [3]; central administration
  gluconeogenesis and glycogenolysis: inhibited gluconeogenesis and glycogenolysis
  liver glucose production, G6Pase flux and mRNA: reduced liver glucose production, G6Pase flux and mRNA
Conscious rats [3]; four hour ICV infusion 5 μl/h (glucose 2 mM, lactate 5 mM), control 150±4
  plasma glucose concentrations: 129 ± 3 mg/dL
Conscious rats [3]; pancreatic basal insulin clamps, central administration
  exogenous glucose infusion rate required to maintain euglycemia: increased exogenous glucose infusion rate
Conscious rats [3]; pancreatic clamps, plasma glucose and insulin at basal, ICV infusion, control 10.4±0.1 (glucose), 11.7±0.6 (lactate)
  GP (glucose production): 6.5 ± 0.6 mg/kg/min
High fat-fed rats [4]; 3-day high fat diet-fed animals
  glucose production: entirely preserved; also recorded: lowered glucose production
High fat-fed rats [4]; regular chow animals
  glucose production: lowered glucose production
Male Sprague-Dawley rats; ICV infusion
  plasma free fatty acids levels: did not affect plasma free fatty acids levels
Male Sprague-Dawley rats; ICV infusion (glucose 2 mM, L-lactate 5 mM)
  plasma triglyceride levels: markedly decreased plasma triglycerides levels
Male Sprague-Dawley rats; increased central metabolism of lactate to pyruvate, rats (Example 3)
  suppression of plasma TG levels: ~50%
Conscious rats [5]; i.v. lactate 100 μmol•kg-1•min-1, i.v. saline 0.28±0.09
  plasma TG levels: 0.11 ± 0.02 mM
Conscious rats [5]; i.v. lactate infusion, i.v. saline 0.059±0.003
  rate of production of hepatic TG-enriched VLDL: 0.041 ± 0.002 mM/min
Conscious rats [5]; i.v. lactate vs i.v. saline
  decrease in VLDL production: 31%
  lowering of plasma TG levels: > 50%
Conscious rats [5]; physiological increase in plasma lactate
  VLDL secretion: sufficient to inhibit VLDL secretion
Conscious rats [5]; ~two-fold increase in circulating lactate, basal and clamp conditions
  plasma triglyceride: significant decrease in plasma triglyceride in both conditions
